According to ChEMBL document CHEMBL2016457, “Discovery of potent and orally bioavailable 17β-hydroxysteroid dehydrogenase type 3 inhibitors” (Bioorg Med Chem, 2012):
Active and inactive are the calls of the source. How the calls were made is not given here.

Assays:
[1] = molecular target: T1, 17-beta-hydroxysteroid dehydrogenase type 1 (Homo sapiens) (UniProt P14061); test: Inhibition of human recombinant 17-beta-HSD1 expressed in human HeLa cells using estrone as substrate preincubated for 30 mins prior substrate addition measured after 120 mins by spectrophotometry; format: cell-based
T1 sequence (whole entry): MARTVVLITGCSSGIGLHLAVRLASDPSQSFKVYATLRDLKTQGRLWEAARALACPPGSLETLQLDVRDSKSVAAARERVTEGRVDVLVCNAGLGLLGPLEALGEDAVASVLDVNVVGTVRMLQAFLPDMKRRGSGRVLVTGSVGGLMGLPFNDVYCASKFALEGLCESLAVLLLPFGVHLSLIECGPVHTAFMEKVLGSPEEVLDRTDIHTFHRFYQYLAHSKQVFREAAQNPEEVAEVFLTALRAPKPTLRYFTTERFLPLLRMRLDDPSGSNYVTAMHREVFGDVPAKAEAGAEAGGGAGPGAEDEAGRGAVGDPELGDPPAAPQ

[2] = molecular target: T2, 17-beta-hydroxysteroid dehydrogenase type 2 (Homo sapiens) (UniProt P37059); test: Inhibition of human recombinant 17-beta-HSD2 expressed in human HeLa cells using estradiol as substrate preincubated for 30 mins prior substrate addition measured after 120 mins by spectrophotometry; format: cell-based
T2 sequence (whole entry): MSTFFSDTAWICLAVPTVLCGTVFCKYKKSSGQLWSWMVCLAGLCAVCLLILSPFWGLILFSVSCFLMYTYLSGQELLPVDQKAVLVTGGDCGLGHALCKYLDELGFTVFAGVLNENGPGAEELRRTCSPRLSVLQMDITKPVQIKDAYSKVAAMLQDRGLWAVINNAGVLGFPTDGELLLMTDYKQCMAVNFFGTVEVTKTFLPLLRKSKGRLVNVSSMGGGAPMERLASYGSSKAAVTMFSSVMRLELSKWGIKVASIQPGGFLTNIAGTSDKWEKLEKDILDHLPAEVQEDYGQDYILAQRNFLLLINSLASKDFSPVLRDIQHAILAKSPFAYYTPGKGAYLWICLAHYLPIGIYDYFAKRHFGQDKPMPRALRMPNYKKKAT

[3] = molecular target: T3, Androgen receptor (Homo sapiens) (UniProt P10275); test: Agonist activity at human androgen receptor expressed in human HeLa cells assessed as DHT-induced response after 40 hrs by luciferase/beta-galactosidase-based reporter gene assay; format: functional, cell-based
T3 sequence (whole entry): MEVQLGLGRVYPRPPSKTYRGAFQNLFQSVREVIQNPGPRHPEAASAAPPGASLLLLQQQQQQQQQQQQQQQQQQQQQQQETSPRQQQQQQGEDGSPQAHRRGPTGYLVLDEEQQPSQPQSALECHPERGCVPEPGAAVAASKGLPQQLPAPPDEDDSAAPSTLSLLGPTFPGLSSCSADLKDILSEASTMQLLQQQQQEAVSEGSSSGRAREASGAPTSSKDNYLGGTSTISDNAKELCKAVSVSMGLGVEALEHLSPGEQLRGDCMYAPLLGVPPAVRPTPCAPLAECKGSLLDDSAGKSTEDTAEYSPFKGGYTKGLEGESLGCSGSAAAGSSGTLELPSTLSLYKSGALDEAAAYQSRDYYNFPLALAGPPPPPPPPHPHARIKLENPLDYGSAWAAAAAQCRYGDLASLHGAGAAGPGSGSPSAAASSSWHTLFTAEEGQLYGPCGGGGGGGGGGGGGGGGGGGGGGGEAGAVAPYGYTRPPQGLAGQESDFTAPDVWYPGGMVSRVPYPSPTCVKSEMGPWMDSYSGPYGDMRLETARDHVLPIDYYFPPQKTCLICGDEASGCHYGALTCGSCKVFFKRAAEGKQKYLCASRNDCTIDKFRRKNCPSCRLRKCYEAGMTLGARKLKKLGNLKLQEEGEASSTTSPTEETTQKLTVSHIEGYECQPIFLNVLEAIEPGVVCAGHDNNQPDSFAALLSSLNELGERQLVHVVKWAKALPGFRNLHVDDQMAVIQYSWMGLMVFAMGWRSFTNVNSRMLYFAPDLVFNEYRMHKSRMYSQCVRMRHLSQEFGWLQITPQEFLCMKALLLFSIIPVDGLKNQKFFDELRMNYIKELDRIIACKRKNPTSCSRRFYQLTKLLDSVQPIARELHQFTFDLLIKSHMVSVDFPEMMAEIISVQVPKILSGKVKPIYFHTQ

[4] = molecular target: T4, Estrogen receptor (Homo sapiens) (UniProt P03372); test: Agonist activity at human Estrogen receptor ERalpha expressed in human HeLa cells assessed as DHT-induced response after 40 hrs by luciferase/beta-galactosidase-based reporter gene assay; format: functional, cell-based
T4 sequence (whole entry): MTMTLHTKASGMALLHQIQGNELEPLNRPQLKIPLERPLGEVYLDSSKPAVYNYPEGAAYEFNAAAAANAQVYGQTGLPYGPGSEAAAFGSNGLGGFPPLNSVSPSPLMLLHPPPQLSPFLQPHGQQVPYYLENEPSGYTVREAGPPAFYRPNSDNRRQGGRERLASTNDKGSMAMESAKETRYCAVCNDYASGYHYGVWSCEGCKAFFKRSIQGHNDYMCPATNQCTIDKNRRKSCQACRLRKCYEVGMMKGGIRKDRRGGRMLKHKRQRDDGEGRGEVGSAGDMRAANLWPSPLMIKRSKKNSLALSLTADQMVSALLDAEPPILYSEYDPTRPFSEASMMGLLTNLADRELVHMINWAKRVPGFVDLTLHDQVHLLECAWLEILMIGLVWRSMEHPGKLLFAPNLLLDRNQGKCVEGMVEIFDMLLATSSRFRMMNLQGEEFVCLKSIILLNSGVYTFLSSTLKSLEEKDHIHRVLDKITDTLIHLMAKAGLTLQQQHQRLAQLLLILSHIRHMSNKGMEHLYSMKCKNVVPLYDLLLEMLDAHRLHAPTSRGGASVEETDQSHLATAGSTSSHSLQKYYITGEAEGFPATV

[5] = molecular target: T5, Glucocorticoid receptor (Homo sapiens) (UniProt P04150); test: Agonist activity at human Glucocorticoid receptor expressed in human HeLa cells assessed as DHT-induced response after 40 hrs by luciferase/beta-galactosidase-based reporter gene assay; format: functional, cell-based
T5 sequence (whole entry): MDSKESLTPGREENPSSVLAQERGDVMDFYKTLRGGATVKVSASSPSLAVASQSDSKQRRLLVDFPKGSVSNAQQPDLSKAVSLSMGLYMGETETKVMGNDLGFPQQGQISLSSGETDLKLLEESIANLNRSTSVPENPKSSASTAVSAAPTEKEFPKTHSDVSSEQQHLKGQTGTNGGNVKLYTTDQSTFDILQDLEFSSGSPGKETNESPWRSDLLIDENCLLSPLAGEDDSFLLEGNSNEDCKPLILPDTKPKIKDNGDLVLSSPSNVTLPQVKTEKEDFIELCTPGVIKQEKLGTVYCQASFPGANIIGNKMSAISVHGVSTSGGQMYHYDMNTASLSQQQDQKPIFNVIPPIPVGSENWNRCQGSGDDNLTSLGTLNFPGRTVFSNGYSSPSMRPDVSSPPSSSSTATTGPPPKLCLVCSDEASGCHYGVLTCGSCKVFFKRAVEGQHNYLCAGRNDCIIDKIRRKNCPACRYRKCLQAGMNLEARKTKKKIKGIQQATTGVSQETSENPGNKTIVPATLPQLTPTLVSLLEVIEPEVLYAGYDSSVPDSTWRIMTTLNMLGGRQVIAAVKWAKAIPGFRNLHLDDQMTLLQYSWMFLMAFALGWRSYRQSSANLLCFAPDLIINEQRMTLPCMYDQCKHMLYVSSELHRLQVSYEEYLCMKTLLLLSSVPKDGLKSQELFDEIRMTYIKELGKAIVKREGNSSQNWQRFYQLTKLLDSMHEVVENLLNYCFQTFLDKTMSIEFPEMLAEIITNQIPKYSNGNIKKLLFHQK

[6] = molecular target: T3, Androgen receptor (Homo sapiens); test: Antagonist activity at human androgen receptor expressed in human HeLa cells assessed as inhibition of DHT-induced response after 40 hrs by luciferase/beta-galactosidase-based reporter gene assay; format: functional, cell-based
[7] = molecular target: T4, Estrogen receptor (Homo sapiens); test: Antagonist activity at human ERalpha receptor expressed in human HeLa cells assessed as inhibition of DHT-induced response after 40 hrs by luciferase/beta-galactosidase-based reporter gene assay; format: functional, cell-based
[8] = molecular target: T5, Glucocorticoid receptor (Homo sapiens); test: Antagonist activity at human GR receptor expressed in human HeLa cells assessed as inhibition of DHT-induced response after 40 hrs by luciferase/beta-galactosidase-based reporter gene assay; format: functional, cell-based
[9] = molecular target: T6, 17-beta-hydroxysteroid dehydrogenase type 3 (Homo sapiens, UniProt P37058)
T6 sequence (P37058 whole entry): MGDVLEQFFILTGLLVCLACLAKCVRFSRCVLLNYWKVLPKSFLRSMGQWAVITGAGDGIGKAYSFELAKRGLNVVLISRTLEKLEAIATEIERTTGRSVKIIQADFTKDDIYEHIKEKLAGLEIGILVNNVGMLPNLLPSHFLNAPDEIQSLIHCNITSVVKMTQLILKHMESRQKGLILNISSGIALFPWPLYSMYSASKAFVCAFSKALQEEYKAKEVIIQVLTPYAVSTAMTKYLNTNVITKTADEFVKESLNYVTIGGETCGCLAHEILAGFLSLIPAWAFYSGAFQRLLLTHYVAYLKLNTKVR
Description: Inhibition of human recombinant 17-beta-HSD3 expressed in human HeLa cells using androstenedione as substrate preincubated for 30 mins prior substrate addition measured after 120 mins by spectrophotometry

Row | SMILES | inhibition [1] | inhibition [2] | Activity [3] | Activity [4] | Activity [5] | Activity [6] | Activity [7] | Activity [8] | IC50 [9] [nM]
1 | COC(=O)c1ccc(N2C(=O)O/C(=C\c3ccc(O)c(Br)c3)C2=O)cc1 | inactive | inactive | inactive | inactive | inactive | inactive | inactive | inactive | 24
2 | COc1ccc(N2C(=O)/C(=C/c3ccc(O)c(Cl)c3)OC2=S)cc1 | inactive | inactive | inactive | inactive | inactive | inactive | inactive | inactive | 4
3 | CN(C)c1ccc(N2C(=O)O/C(=C\c3ccc(O)c(Br)c3)C2=O)cc1 | inactive | inactive | inactive | inactive | inactive | inactive | inactive | inactive | 25
4 | COc1ccc(N2C(=O)/C(=C/c3ccc(O)cc3)OC2=S)cc1 | inactive | inactive | inactive | inactive | inactive | inactive | inactive | inactive | 121
5 | COc1ccc(N2C(=O)C(Cc3ccc(O)c(Br)c3)SC2=S)cc1 (stereo unspecified) | inactive | inactive | inactive | inactive | inactive | inactive | inactive | inactive | 90
6 | O=C(c1ccc(N2C(=O)O/C(=C\c3ccc(O)c(Br)c3)C2=O)cc1)N1CCOCC1 | inactive | inactive | inactive | inactive | inactive | inactive | inactive | inactive | 300

The next lines start with the values.

Row | inhibition [1] | inhibition [2] | Activity [3] | Activity [4] | Activity [5] | Activity [6] | Activity [7] | Activity [8] | IC50 [9] [nM] | SMILES
7 | inactive | inactive | inactive | inactive | inactive | inactive | inactive | inactive | 120 | C=CCN1C(=O)/C(=C/c2ccc(O)c(Br)c2)SC1=S
8 | inactive | inactive | inactive | inactive | inactive | inactive | inactive | inactive |  | COc1ccc(N2C(=O)/C(=C/c3ccc(O)c(Br)c3)SC2=S)cc1
9 | inactive | inactive | inactive | inactive | inactive | inactive | inactive | inactive | 300 | C#CCN1C(=O)/C(=C/c2ccc(O)c(Br)c2)SC1=S
10 | inactive | inactive | inactive | inactive | inactive | inactive | inactive | inactive | 890 | CN1C(=O)/C(=C/c2ccc(O)c(Br)c2)SC1=S
11 | inactive | inactive | inactive | inactive | inactive | inactive | inactive | inactive | 2 | O=C1/C(=C/c2ccc(O)c(Br)c2)OC(=S)N1c1ccc(F)cc1
12 | inactive | inactive | inactive | inactive | inactive | inactive | inactive | inactive |  | COc1ccc(N2C(=O)O/C(=C\c3ccc(O)c(Br)c3)C2=O)cc1
